Measurements as given in ChEMBL document CHEMBL1132945, “Ethylene glycol and amino acid derivatives of 5-aminolevulinic acid as new photosensitizing precursors of protoporphyrin IX in cells” (J Med Chem, 2000).

Columns and labels:
A549 = assay: Cytotoxicity against A549 cells; No cytotoxicity; format: functional, cell-based; conditions: Homo sapiens
HCEC = assay: Cytotoxicity against HCEC cells; No cytotoxicity; format: functional, cell-based; conditions: Homo sapiens

Row | SMILES | Cytotoxicity (A549) | Cytotoxicity (HCEC)
1 | CCOCCOC(=O)CCC(=O)CN | No cytotoxicity | No cytotoxicity
2 | COCCOC(=O)CCC(=O)CN | No cytotoxicity | No cytotoxicity
3 | CCOCCOCCOCCOC(=O)CCC(=O)CN | No cytotoxicity | No cytotoxicity
4 | CCOCCOCCOC(=O)CCC(=O)CN | No cytotoxicity | No cytotoxicity
